Values quoted from earlier work, collected in patent publication US20150313829A1, “TOPICAL FORMULATIONS FOR THE PREVENTION AND TREATMENT OF ALOPECIA AND INHIBITION OF HAIR GROWTH” (UNIVERSIDADE FEDERAL DE MINAS GERAIS -UFMG, priority 2012, published 2015).

Test system: murine model of alopecia
Settings: WO 01/98325

For “Asp1-Arg2-VAL3-Tyr4-Ile5-His6-Pro7 [Ang-(1-7)]”, the hair growth is listed as “induces hair growth” and the “number of mature follicles” value is listed as “increased the number of mature follicles”.
